In publication PMC5382548 (Scientific Reports, 2015):
Read-outs that look alike come from different tables or passages of the source.

Tests used:
[1] = system: F21T G4 (human telomeric sequence); test: FRET melting assay, F21T telomeric G4; format: binding; settings: G4 0.2 μM, ligand 1 μM
Protocol: Two compounds 2d and 3e were selected and evaluated for their ability to stabilize the 32-mer sequence in the NHE of the human KRAS promoter (KRAS32R)[12], two G4 motifs in the 5′UTR of KRAS mRNA (UTR-1 and UTR-2)[24] and a 21-mer DNA G4 from the human telomeric sequence (F21T). The KRAS32R sequence has been described as forming two G4 structures which exist in equilibrium. One sequence folds into a G4 (Q1) with a Tm of ~55°C that is disrupted on increasing the temperature and then, the full-length 32-mer sequence folds into a new G4 (Q2, Tm of ~72°C)[13]. In our assay, the KRAS32R sequence (in the presence or absence of IQcs) folded in a single G4 structure (Tm ≈ 54°C), as shown by the single inflection for the first derivative of the FRET melting data (Sup. Inf.; Figure S4). This monophasic behaviour was also observed in the presence of TMPyP4[13].
Oligonucleotide sequences were purchased from Eurofins MWG Synthesis GmbH, Germany or STAB VIDA Genomics Lab, Caparica, Lisbon, Portugal. The labelled oligonucleotides used in the FRET assays had attached the donor fluorophore FAM (6-carboxyfluorescein) and the acceptor fluorophore TAMRA (6-carboxytetramethylrhodamine): KRAS21R: 5′-FAM-[…]-TAMRA-3′; KRAS32R: 5′-FAM-[…]-TAMRA-3′; UTR-1: 5′-FAM-GCGGCGGCGGAGG-TAMRA-3′; UTR-2: 5′-FAM-[…]-TAMRA-3; T-Loop:5′-FAM-[…]-TAMRA-3′; F21T: 5′-FAM-[…]-TAMRA-3′. Non-labelled oligonucleotides were used in FRET competition assays and in the spectroscopic studies: ds26: - d(5′-CAATCGGATCGAATT CGATCCGATTG-3′); KRAS21R: 5′-[…]-3′; HT21: 5′-[…]-3′. Each oligonucleotide was initially diluted to a storage solution at 100 μM in nuclease-free water (not DEPC-treated), purchased from Ambion Applied Biosystems UK.
The ability of indolo[3,2-c]quinolines to stabilize DNA sequences was investigated using a Fluorescence Resonance Energy Transfer (FRET) assay as reported elsewhere.

[2] = system: SW620 (metastatic colon); test: MTS short-term cytotoxicity assay, SW620; format: cell-based; settings: Homo sapiens, read-out: IC50 SW620
Protocol: (§1) Short-term anti-proliferative assays were carried out by two different assays using a panel of human cancer and non-malignant human cell lines. […] The transformed human embryonic kidney cell line HEK293T (wt KRAS) was sensitive to all tested drugs, including TMPyP4, a cationic porphyrin established as a G4 ligand, as well as the anticancer drug 5-fluorouracil (5-FU).
(§2) HCT116 human colon carcinoma cells, SW620 human colorectal adenocarcinoma and HEK293 T human embryonic kidney cells were grown in Dulbecco's modified Eagle's medium (DMEM) supplemented with 10% fetal bovine serum, and 1% antibiotic/antimycotic (Invitrogen, Grand Island, NY, USA) and maintained at 37°C in a humidified atmosphere of 5% CO2. Cells were seeded in 96 well plates at 5.000 cells/well. Twenty-four hours after cell plating, media was removed and replaced with fresh media containing test compounds and 5-FU (Sigma), a common cytotoxic agent used in colon cancer treatmen, or vehicle control (DMSO). Following 72 h of compound exposure, cell viability was evaluated using the CellTiter 96 AQueous Non-Radioactive Cell Proliferation Assay (Promega, Madison, WI, USA), using 3-(4,5-dimethylthiazol-2-yl)-5-(3-carboxymethoxyphenyl)-2-(4-sulfophenyl)-2H-tetrazolium, inner salt (MTS) as previously described. Cell viability data were expressed as mean ± SEM or mean ± SD from at least three independent experiments. IC50 and IC65 values were determined using GaphPad Prism v.5.00 (GraphPad Software). (Performed at Cell Function and Therapeutic Targeting Group, iMed.ULisboa)

[3] = system: HCT116 (colon); test: MTS short-term cytotoxicity assay, HCT116; format: cell-based, human
Protocol: as §1, §2

[4] = Homo sapiens, HCT-116, MTS assay, 72 h, read-out: IC50 HCT116

Row | Compound | ΔTm F21T [1] | IC50 ([2]; SW-620, MTS assay, 72 h) | IC50 [3, 4] | IC50 ([2]; SW-620, 72 h) | IC50 ([3]; Homo sapiens, HCT-116, 72 h, read-out: IC50 HCT116, MTS assay, 72 h) | IC50 ([3]; read-out: IC50 HCT116, MTS assay, 72 h)
1 | CCN(CC)CCCNc1ccc2c(c1)[nH]c1c2c[n+](C)c2ccc(NCCCN(CC)CC)cc12.[Cl-] [3e] | 30.7 °C | 1.79 µM | 1.8 µM |  |  | 
2 | CCN(CC)CCCNc1ccc2c(c1)c1[nH]c3ccccc3c1c[n+]2C [2d] | 17.7 °C | 0.59 µM | 0.46 µM |  |  | 
3 | C[n+]1ccc(-c2c3nc(c(-c4cc[n+](C)cc4)c4ccc([nH]4)c(-c4cc[n+](C)cc4)c4ccc([nH]4)c(-c4cc[n+](C)cc4)c4nc2C=C4)C=C3)cc1 [TMPyP4, reference compound] |  |  |  | > 20 µM | 12.3 µM | 12.4 µM
4 | Cn1cc2c3ccccc3nc-2c2cc(Br)ccc21 [2a, 2-bromo-5-methyl-indolo[3,2-c]quinoline] | 5.6 °C | 0.2 µM | 0.14 µM |  |  | 
5 | CCN(CC)CCCNc1ccc2[nH]c3c(c[n+](C)c4ccc(NCCCN(CC)CC)cc34)c2c1.[Cl-] [3d] |  | 4.74 µM | 3.46 µM |  |  | 
